Test results taken from patent US7754696B2 (Pharmaceutical Solutions, Inc., priority 2001, dated 2010).

Legend:
foul mites = assay: Treatment of a poultry flock via drinking water, mites; format: in vivo; conditions: 10000 head flock, 5 percent concentration mixture in water, administered over 12 hours, 180 ug per kg
Experimental: (§1) 400 cc of a 5 percent concentration mixture was added to 5 gallons of water to form a stock solution that was administered over 12 hours at a dose of 180 ug per kg.

round worms [1] = assay: Treatment of a poultry flock via drinking water, round worms; format: in vivo; conditions: 10000 head flock, 5 percent concentration mixture in water, administered over 12 hours, 180 ug per kg
Experimental: as §1

round worms [2] = assay: Treatment of swine via drinking water, fecal examinations pre and post treatment; format: in vivo; conditions: 1000 100-pound pigs, 5 percent solution in 10 gallons of water stock solution
Experimental: This is 20 mg per 100 pounds or 200 ug per pound.

[3] = room temperature; cited from earlier work
[4] = cited from earlier work
[5] = cited from earlier work; remark: listed apart in the source

CC[C@H](C)[C@H]1O[C@]2(CC[C@@H]1C)C[C@@H]1C[C@@H](C/C=C(\C)C(O[C@H]3C[C@H](OC)[C@@H](O[C@H]4C[C@H](OC)[C@@H](O)[C@H](C)O4)[C@H](C)O3)[C@@H](C)/C=C/C=C3\CO[C@@H]4[C@H](O)C(C)=C[C@@H](C(=O)O1)[C@]34O)O2 (stereo partly drawn) [Ivermectin, 22,23 dihydroavermectin Bla]
elimination of mites from the birds (foul mites): 100%
elimination of worms from the birds (round worms [1]): 100%
reduction in round worms based on fecal examinations (round worms [2]): 98%
solubility in water [3]: about 0.005 mg per ml
apparent volume of distribution ([4]; adults): about 47 liters
systemic clearance ([4]; adults): about 1.2 liters/hour
terminal half-life ([4]; adults): about 27 hours
time to peak levels in plasma ([4]; human beings, oral administration): ≤ 4 h
bound to plasma proteins [5]: about 93%
